Key:
Experiment in all cases: Kinase binding assay (kinase-tagged T7 phage, qPCR), Kd
FGFR3 = biological target: T1, FGFR3 (Homo sapiens, UniProt P22607); conditions: read-out: FGFR3 (Kd nM)
T1 construct: made in house; host or cells: E. coli derived from BL21, infected with T7 phage
Description: (§1) Kinase-tagged T7 phage strains were prepared in an E. coli host derived from the BL21 strain. E. coli were grown to log-phase and infected with T7 phage and incubated with shaking at 32° C. until lysis. The lysates were centrifuged and filtered to remove cell debris. Streptavidin-coated magnetic beads were treated with biotinylated small molecule ligands for 30 minutes at room temperature to generate affinity resins for kinase assays. The liganded beads were blocked with excess biotin and washed with blocking buffer SeaBlock (Pierce), 1% BSA, 0.05% Tween 20, 1 mM DTT to remove unbound ligand and to reduce non-specific binding. Binding reactions were assembled by combining kinases, liganded affinity beads, and test compounds in 1× binding buffer (20% SeaBlock, 0.17×PBS, 0.05% Tween 20, 6 mM DTT).
(§2) Test compounds were prepared as 111X stocks in 100% DMSO. Kds were determined using an 11-point 3-fold compound dilution series with three DMSO control points. All compounds for Kd measurements are distributed by acoustic transfer (non-contact dispensing) in 100% DMSO. The compounds were then diluted directly into the assays such that the final concentration of DMSO was 0.9%. All reactions performed in polypropylene 384-well plate. Each was a final volume of 0.02 ml. The assay plates were incubated at room temperature with shaking for 1 hour and the affinity beads were washed with wash buffer (1×PBS, 0.05% Tween 20). The beads were then re-suspended in elution buffer (1×PBS, 0.05% Tween 20, 0.5 μM non-biotinylated affinity ligand) and incubated at room temperature with shaking for 30 minutes. The kinase concentration in the eluates was measured by qPCR.
(§3) Binding constants were calculated with a standard dose-response curve using the Hill equation: […]
(§4) The Hill Slope was set to −1. Curves were fitted using a non-linear least square fit with the Levenberg-Marquardt algorithm.

FGFR4 = biological target: T2, FGFR4 (Homo sapiens, UniProt P22455); conditions: read-out: FGFR4 (Kd nM)
T2 construct: made in house; host or cells: E. coli derived from BL21, infected with T7 phage
T2 sequence (P22455 22-802): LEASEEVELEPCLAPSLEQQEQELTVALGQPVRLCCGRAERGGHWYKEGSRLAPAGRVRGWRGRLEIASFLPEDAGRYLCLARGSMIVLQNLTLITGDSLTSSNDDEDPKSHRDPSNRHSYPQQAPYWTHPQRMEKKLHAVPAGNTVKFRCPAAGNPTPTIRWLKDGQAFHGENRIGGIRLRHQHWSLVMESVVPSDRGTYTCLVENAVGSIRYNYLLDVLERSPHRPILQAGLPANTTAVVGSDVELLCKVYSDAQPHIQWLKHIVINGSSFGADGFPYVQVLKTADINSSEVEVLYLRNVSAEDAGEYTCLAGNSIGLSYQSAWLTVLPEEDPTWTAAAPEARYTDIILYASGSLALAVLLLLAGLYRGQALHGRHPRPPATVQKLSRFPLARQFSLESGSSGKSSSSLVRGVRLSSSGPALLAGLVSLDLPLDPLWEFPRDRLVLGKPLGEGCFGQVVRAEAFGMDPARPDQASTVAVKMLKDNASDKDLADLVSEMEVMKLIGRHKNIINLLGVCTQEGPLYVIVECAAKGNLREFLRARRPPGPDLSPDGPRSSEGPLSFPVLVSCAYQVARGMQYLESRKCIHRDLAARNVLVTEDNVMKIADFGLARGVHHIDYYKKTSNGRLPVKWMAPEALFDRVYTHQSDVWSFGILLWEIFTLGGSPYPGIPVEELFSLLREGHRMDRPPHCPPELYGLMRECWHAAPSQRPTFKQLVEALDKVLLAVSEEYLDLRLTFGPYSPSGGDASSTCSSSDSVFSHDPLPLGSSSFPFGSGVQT
Description: as §1, §2, §3, §4

FGFR1 = biological target: T3, FGFR1 (Homo sapiens, UniProt P11362); conditions: read-out: FGFR1 (Kd nM)
T3 construct: made in house; host or cells: E. coli derived from BL21, infected with T7 phage
T3 sequence (P11362 22-822): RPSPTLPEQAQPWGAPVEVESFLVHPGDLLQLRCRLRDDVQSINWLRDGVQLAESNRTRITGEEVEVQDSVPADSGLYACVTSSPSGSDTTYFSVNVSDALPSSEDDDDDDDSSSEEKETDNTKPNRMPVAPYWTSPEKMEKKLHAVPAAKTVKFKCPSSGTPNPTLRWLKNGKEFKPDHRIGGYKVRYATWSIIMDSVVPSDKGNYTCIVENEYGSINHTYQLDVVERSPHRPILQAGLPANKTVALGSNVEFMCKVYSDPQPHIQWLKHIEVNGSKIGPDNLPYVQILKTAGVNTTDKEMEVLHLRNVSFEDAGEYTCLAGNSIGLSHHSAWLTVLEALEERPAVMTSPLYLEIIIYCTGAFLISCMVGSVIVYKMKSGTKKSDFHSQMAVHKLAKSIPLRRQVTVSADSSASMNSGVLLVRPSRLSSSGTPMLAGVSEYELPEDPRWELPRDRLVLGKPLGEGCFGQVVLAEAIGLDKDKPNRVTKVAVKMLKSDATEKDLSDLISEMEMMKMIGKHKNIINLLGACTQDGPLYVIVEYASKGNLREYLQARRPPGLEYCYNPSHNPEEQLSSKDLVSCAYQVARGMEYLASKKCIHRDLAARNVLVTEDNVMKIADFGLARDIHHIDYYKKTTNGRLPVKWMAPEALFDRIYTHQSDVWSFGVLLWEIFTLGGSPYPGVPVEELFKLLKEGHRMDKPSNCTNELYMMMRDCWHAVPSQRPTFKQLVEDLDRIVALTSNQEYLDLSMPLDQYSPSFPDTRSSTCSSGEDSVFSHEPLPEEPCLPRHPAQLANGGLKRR
Description: (§5) Kinase-tagged T7 phage strains were prepared in an E. coli host derived from the BL21 strain. E. coli were grown to log-phase and infected with T7 phage and incubated with shaking at 32° C. until lysis. The lysates were centrifuged and filtered to remove cell debris. […] The liganded beads were blocked with excess biotin and washed with blocking buffer SeaBlock (Pierce), 1% BSA, 0.05% Tween 20, 1 mM DTT to remove unbound ligand and to reduce non-specific binding.
(§6) Kds were determined using an 11-point 3-fold compound dilution series with three DMSO control points. […] The compounds were then diluted directly into the assays such that the final concentration of DMSO was 0.9%. All reactions performed in polypropylene 384-well plate. Each was a final volume of 0.02 ml. […] The kinase concentration in the eluates was measured by qPCR.
as §3, §4

FGFR2 = biological target: T4, FGFR2 (Homo sapiens, UniProt P21802); conditions: read-out: FGFR2 (Kd nM)
T4 construct: made in house; host or cells: E. coli derived from BL21, infected with T7 phage
T4 sequence (P21802 22-821): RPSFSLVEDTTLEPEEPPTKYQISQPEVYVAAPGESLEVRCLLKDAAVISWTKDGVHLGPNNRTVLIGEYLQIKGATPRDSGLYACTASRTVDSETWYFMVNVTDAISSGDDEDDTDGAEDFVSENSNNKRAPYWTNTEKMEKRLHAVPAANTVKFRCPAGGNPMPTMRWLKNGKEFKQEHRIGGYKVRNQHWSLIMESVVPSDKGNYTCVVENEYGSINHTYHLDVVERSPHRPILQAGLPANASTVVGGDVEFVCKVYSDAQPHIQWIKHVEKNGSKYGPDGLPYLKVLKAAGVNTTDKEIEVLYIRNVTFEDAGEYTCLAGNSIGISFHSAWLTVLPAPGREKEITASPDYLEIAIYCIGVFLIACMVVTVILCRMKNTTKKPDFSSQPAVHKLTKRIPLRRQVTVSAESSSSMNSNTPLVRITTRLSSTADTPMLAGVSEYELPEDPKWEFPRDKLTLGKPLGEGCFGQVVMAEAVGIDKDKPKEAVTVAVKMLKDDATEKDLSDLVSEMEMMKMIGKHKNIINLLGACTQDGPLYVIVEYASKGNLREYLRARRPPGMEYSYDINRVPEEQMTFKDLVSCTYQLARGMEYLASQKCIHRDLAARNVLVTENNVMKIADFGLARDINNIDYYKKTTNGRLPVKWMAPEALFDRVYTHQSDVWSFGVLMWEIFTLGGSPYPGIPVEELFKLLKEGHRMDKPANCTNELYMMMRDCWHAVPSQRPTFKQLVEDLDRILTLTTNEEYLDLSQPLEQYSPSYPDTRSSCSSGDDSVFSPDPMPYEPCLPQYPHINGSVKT
Description: as §5, §6, §3, §4

T1 sequence (P22607 23-806): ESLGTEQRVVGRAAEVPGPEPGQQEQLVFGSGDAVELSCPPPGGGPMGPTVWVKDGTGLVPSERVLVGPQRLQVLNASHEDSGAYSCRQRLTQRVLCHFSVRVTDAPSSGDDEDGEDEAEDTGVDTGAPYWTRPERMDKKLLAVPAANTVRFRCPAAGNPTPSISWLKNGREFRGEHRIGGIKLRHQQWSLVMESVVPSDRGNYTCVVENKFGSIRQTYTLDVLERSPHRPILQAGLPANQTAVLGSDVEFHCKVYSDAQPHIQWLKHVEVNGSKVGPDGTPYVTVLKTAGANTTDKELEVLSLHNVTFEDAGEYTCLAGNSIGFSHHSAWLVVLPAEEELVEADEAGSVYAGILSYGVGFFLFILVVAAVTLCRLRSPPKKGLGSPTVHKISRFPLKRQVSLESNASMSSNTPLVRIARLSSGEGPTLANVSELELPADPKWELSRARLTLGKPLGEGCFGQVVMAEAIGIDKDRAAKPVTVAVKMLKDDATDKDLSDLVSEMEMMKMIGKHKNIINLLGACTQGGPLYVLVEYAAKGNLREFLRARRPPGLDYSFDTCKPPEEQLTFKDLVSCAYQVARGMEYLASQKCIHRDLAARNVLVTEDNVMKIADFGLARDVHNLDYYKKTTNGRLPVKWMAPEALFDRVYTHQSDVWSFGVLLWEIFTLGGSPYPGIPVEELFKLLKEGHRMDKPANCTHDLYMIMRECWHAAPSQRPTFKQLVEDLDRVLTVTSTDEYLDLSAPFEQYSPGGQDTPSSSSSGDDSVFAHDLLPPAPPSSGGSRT

Compound	Kd (FGFR3) [nM]	Kd (FGFR4) [nM]	Kd (FGFR1) [nM]	Kd (FGFR2) [nM]
CC(C)OC(=O)Nc1ccc(-c2n[nH]c3ccc(O[C@H](C)c4c(Cl)cncc4Cl)cc23)cn1 [Example 27, isopropyl N-[5-[5-[(1R)-1-(3,5-dichloro-4-pyridyl)ethoxy]-1H-indazol-3-yl]-2-pyridyl]carbamate]	0.1 to 100	0.1 to 100	100 to 250	250 to 1000
C[C@@H](Oc1ccc2[nH]nc(-c3ccnc(N)c3)c2c1)c1c(Cl)cncc1Cl [Example 29, 4-[5-[(1R)-1-(3,5-dichloro-4-pyridyl)ethoxy]-1H-indazol-3-yl]pyridin-2-amine]	0.1 to 100	0.1 to 100	0.1 to 100	0.1 to 100
COc1ncc(-c2n[nH]c3ccc(O[C@H](C)c4c(Cl)cncc4Cl)cc23)cc1NC(=O)CCN(C)C [Example 31, N-[5-[5-[(1R)-1-(3,5-dichloro-4-pyridyl)ethoxy]-1H-indazol-3-yl]-2-methoxy-3-pyridyl]-3-(dimethylamino)propanamido]	100 to 250	100 to 250	250 to 1000	> 1000
C[C@@H](Oc1ccc2[nH]nc(-c3cnc(N)c(OC(F)(F)F)c3)c2c1)c1c(Cl)cncc1Cl [Example 32, 5-[5-[(1R)-1-(3,5-dichloro-4-pyridyl)ethoxy]-1H-indazol-3-yl]-3-(trifluoro-methoxy)pyridin-2-amine]	> 1000	0.1 to 100	> 1000	> 1000
CCOc1cc(-c2n[nH]c3ccc(O[C@H](C)c4c(Cl)cncc4Cl)cc23)cnc1N [Example 33, 5-[5-[(1R)-1-(3,5-Dichloro-4-pyridyl)ethoxy]-1H-indazol-3-yl]-3-ethoxy-pyridin-2-amine]	250 to 1000	0.1 to 100	> 1000	> 1000
COCCNc1cc(-c2n[nH]c3ccc(O[C@H](C)c4c(Cl)cncc4Cl)cc23)ccn1 [Example 35, (R)-4-(5-(1-(3,5-Dichloropyridin-4-yl)ethoxy)-1H-indazol-3-yl)-N-(2-methoxyethyl)pyridin-2-amine]	0.1 to 100	0.1 to 100	0.1 to 100	0.1 to 100
C[C@@H](Oc1ccc2[nH]nc(-c3ccnc(NCCO)c3)c2c1)c1c(Cl)cncc1Cl [Example 36, 2-[[4-[5-[(1R)-1-(3,5-Dichloro-4-pyridyl)ethoxy]-1H-indazol-3-yl]-2-pyridyl]amino]ethanol]	0.1 to 100	0.1 to 100	0.1 to 100	0.1 to 100
C[C@@H](Oc1ccc2[nH]nc(-c3cnc(N)c(OCC(F)(F)F)c3)c2c1)c1c(Cl)cncc1Cl [Example 37, 5-[5-[(1R)-1-(3,5-Dichloro-4-pyridyl)ethoxy]-1H-indazol-3-yl]-3-(2,2,2-trifluoroethoxy)pyridin-2-amine]	> 1000	0.1 to 100	> 1000	> 1000
C[C@@H](Oc1ccc2[nH]nc(-c3cnc4c(c3)OCC(=O)N4)c2c1)c1c(Cl)cncc1Cl [Example 38, 7-[5-[(1R)-1-(3,5-dichloro-4-pyridyl)ethoxy]-1H-indazol-3-yl]-4H-pyrido[3,2-b][1,4]oxazin-3-one]	0.1 to 100	0.1 to 100	0.1 to 100	0.1 to 100
Cc1cccc(C(=O)N2CCOc3ncc(-c4n[nH]c5ccc(O[C@H](C)c6c(Cl)cncc6Cl)cc45)cc32)n1 [Example 39, [7-[5-[(1R)-1-(3,5-dichloro-4-pyridyl)ethoxy]-1H-indazol-3-yl]-2,3-dihydro-pyrido[2,3-b][1,4]oxazin-1-yl]-(6-methyl-2-pyridyl)methanone]	250 to 1000	0.1 to 100	> 1000	> 1000
C[C@@H](Oc1ccc2[nH]nc(-c3cnc4c(c3)N(C(=O)OCCCN(C)C)CCO4)c2c1)c1c(Cl)cncc1Cl [Example 43, 3-(dimethyl-amino)propyl 7-[5-[(1R)-1-(3,5-dichloro-4-pyridyl)ethoxy]-1H-indazol-3-yl]-2,3-dihydro-pyrido[2,3-b][1,4]oxazine-1-carboxylate]	0.1 to 100	0.1 to 100	250 to 1000	250 to 1000
COc1cc(N)cc(-c2n[nH]c3ccc(O[C@H](C)c4c(Cl)cncc4Cl)cc23)c1 [Example 44, 3-[5-[(1R)-1-(3,5-dichloro-4-pyridyl)ethoxy]-1H-indazol-3-yl]-5-methoxy-aniline]	250 to 1000	0.1 to 100	> 1000	> 1000
COc1cc(NCc2ccccn2)cc(-c2n[nH]c3ccc(O[C@H](C)c4c(Cl)cncc4Cl)cc23)c1 [Example 46, 3-[5-[(1R)-1-(3,5-dichloro-4-pyridyl)ethoxy]-1H-indazol-3-yl]-5-methoxy-N-(2-pyridyl-methyl)aniline]	> 1000	0.1 to 100	> 1000	> 1000
COc1cc(NCc2cccnc2)cc(-c2n[nH]c3ccc(O[C@H](C)c4c(Cl)cncc4Cl)cc23)c1 [Example 47, 3-[5-[(1R)-1-(3,5-dichloro-4-pyridyl)ethoxy]-1H-indazol-3-yl]-5-methoxy-N-(3-pyridyl-methyl)aniline]	0.1 to 100	250 to 1000	100 to 250	100 to 250
C[C@@H](Oc1ccc2[nH]nc(-c3cnc4c(c3)N(Cc3ccccn3)CCO4)c2c1)c1c(Cl)cncc1Cl [Example 48, 7-[5-[(1R)-1-(3,5-dichloro-4-pyridyl)ethoxy]-1H-indazol-3-yl]-1-(2-pyridyl-methyl)-2,3-dihydro-pyrido[2,3-b][1,4]oxazine]	0.1 to 100	250 to 1000	> 1000	> 1000
C[C@@H](Oc1ccc2[nH]nc(-c3cnc4c(c3)N(CCN3CCOCC3)CCO4)c2c1)c1c(Cl)cncc1Cl [Example 50, 7-[5-[(1R)-1-(3,5-dichloro-4-pyridyl)ethoxy]-1H-indazol-3-yl]-1-(2-morpholino-ethyl)-2,3-dihydropyrido[2,3-b][1,4]oxazine]	> 1000	0.1 to 100	> 1000	> 1000
C[C@@H](Oc1ccc2[nH]nc(-c3cnc4c(c3)N(CCN(C)C)CCO4)c2c1)c1c(Cl)cncc1Cl [Example 51, 2-[7-[5-[(1R)-1-(3,5-dichloro-4-pyridyl)ethoxy]-1H-indazol-3-yl]-2,3-dihydro-pyrido[2,3-b][1,4]oxazin-1-yl]-N,N-dimethyl-ethanamine]	250 to 1000	100 to 250	> 1000	> 1000
CCOc1cc(OC)cc(-c2n[nH]c3ccc(O[C@H](C)c4c(C)cnnc4C)cc23)c1 [Example 52, 5-[(1R)-1-(3,5-dimethylpyridazin-4-yl)ethoxy]-3-(3-ethoxy-5-methoxy-phenyl)-1H-indazole]	100 to 250	0.1 to 100	> 1000	250 to 1000
COc1cc(OC)cc(-c2n[nH]c3ccc(O[C@H](C)c4c(C)cnnc4C)cc23)c1 [Example 54, 3-(3,5-dimethoxyphenyl)-5-[(1R)-1-(3,5-dimethylpyridazin-4-yl)ethoxy]-1H-indazole]	0.1 to 100	0.1 to 100	250 to 1000	250 to 1000
COc1cc(C#N)cc(-c2n[nH]c3ccc(O[C@@H](C)c4c(C)cnnc4C)cc23)c1 [Example 55, 3-[5-[(1S)-1-(3,5-dimethylpyridazin-4-yl)ethoxy]-1H-indazol-3-yl]-5-methoxy-benzonitrile]	> 1000	250 to 1000	> 1000	> 1000
